Data taken from US20230355584A1, “COMPOSITIONS AND METHODS FOR THE TREATMENT OF LIPID-RELATED DISORDERS” (Raziel Therapeutics Ltd., priority 2020, published 2023).

Key:
Format in all cases: in vivo
submental fat [1] = experiment: Phase 2a study: Subject Face-Q Questionnaire (subject satisfaction); conditions: human subjects, Day 84 vs. baseline
Experimental: 28 patients with submental skin fold thickness greater than 1.5 cm as measured with calipers were divided into two cohorts, Cohort 1 (12 patients) and Cohort 2 (16 subjects). In Cohort 1, 8 subjects were injected with a 50 mg per mL solution of 5-(3,6-dibromo-9H-carbazol-9-yl)-N,N,N-trimethylpentan-1-aminium chloride (Compound 1A) in a vehicle comprising water, propylene glycol, and a surfactant, and 4 patients were injected with a placebo solution comprising vehicle only. […] Dosing is determined by cohort, as shown in Table 6 below: The maximum compound dose was 120 mg per patient (a total of 48 injections at 2.5 mg per injection) for Cohort 1 and 240 mg per patient (a total of 48 injections at 5 mg per injection) for Cohort 2. […] Cohort 2 subjects began treatment after Cohort 1 was evaluated for safety on day 28 post-injection. Subjects were also evaluated by a Face-Q Questionnaire, at baseline visit prior to injection and at posttreatment follow up visits on Days 28, 56, and 84. […] Submental fat volume was determined via magnetic resonance imaging (MRI) prior to injection and on day 84 post-injection. Treatment efficacy was evaluated via the Physician’s Global Assessment (PGS) questionnaire on days 28, 56, and 84 after injection, as described above. […]

submental fat [2] = experiment: Phase 2a study: Physician Impression scale (physician's global assessment of submental fat); conditions: human, 18 treated subjects (low and high dose), Day 84 vs baseline
Experimental: 28 patients with submental skin fold thickness greater than 1.5 cm as measured with calipers were divided into two cohorts, Cohort 1 (12 patients) and Cohort 2 (16 subjects). In Cohort 1, 8 subjects were injected with a 50 mg per mL solution of 5-(3,6-dibromo-9H-carbazol-9-yl)-N,N,N-trimethylpentan-1-aminium chloride (Compound 1A) in a vehicle comprising water, propylene glycol, and a surfactant, and 4 patients were injected with a placebo solution comprising vehicle only. […] Dosing is determined by cohort, as shown in Table 6 below: The maximum compound dose was 120 mg per patient (a total of 48 injections at 2.5 mg per injection) for Cohort 1 and 240 mg per patient (a total of 48 injections at 5 mg per injection) for Cohort 2. […] Cohort 2 subjects began treatment after Cohort 1 was evaluated for safety on day 28 post-injection. […] Submental fat volume was determined via magnetic resonance imaging (MRI) prior to injection and on day 84 post-injection. Treatment efficacy was evaluated via the Physician’s Global Assessment (PGS) questionnaire on days 28, 56, and 84 after injection, as described above. Patient satisfaction was assessed using the FACE-Q questionnaire prior to injection and on days 28, 56, and 84 after injection, as described above.

submental fat [3] = experiment: Phase 2a study: submental fat volume by MRI; conditions: human subjects, day 84 vs prior to injection
Experimental: 28 patients with submental skin fold thickness greater than 1.5 cm as measured with calipers were divided into two cohorts, Cohort 1 (12 patients) and Cohort 2 (16 subjects). In Cohort 1, 8 subjects were injected with a 50 mg per mL solution of 5-(3,6-dibromo-9H-carbazol-9-yl)-N,N,N-trimethylpentan-1-aminium chloride (Compound 1A) in a vehicle comprising water, propylene glycol, and a surfactant, and 4 patients were injected with a placebo solution comprising vehicle only. In Cohort 2, 6 patients were dosed with a placebo solution comprising vehicle only, and 10 patients were injected with a 50 mg per mL solution of 5-(3,6-dibromo-9H-carbazol-9-yl)-N,N,N-trimethylpentan-1-aminium chloride in a vehicle comprising water, propylene glycol, and a surfactant. […] Cohort 2 subjects began treatment after Cohort 1 was evaluated for safety on day 28 post-injection. Submental fat volume was determined via magnetic resonance imaging (MRI) prior to injection and on day 84 post-injection. Treatment efficacy was evaluated via the Physician’s Global Assessment (PGS) questionnaire on days 28, 56, and 84 after injection, as described above. Patient satisfaction was assessed using the FACE-Q questionnaire prior to injection and on days 28, 56, and 84 after injection, as described above.

[4] = Phase 2a study: safety and tolerability (adverse events, vital signs); conditions: human subjects
Experimental: 28 patients with submental skin fold thickness greater than 1.5 cm as measured with calipers were divided into two cohorts, Cohort 1 (12 patients) and Cohort 2 (16 subjects). In Cohort 1, 8 subjects were injected with a 50 mg per mL solution of 5-(3,6-dibromo-9H-carbazol-9-yl)-N,N,N-trimethylpentan-1-aminium chloride (Compound 1A) in a vehicle comprising water, propylene glycol, and a surfactant, and 4 patients were injected with a placebo solution comprising vehicle only. In Cohort 2, 6 patients were dosed with a placebo solution comprising vehicle only, and 10 patients were injected with a 50 mg per mL solution of 5-(3,6-dibromo-9H-carbazol-9-yl)-N,N,N-trimethylpentan-1-aminium chloride in a vehicle comprising water, propylene glycol, and a surfactant.
The maximum compound dose was 120 mg per patient (a total of 48 injections at 2.5 mg per injection) for Cohort 1 and 240 mg per patient (a total of 48 injections at 5 mg per injection) for Cohort 2. Injections were given at a 90° angle to the injected skin surface and spaced of a submental area-shaped grid in which the distance between rows was 1 cm and the distance between columns was also 1 cm. Cohort 2 subjects began treatment after Cohort 1 was evaluated for safety on day 28 post-injection.

Structure (SMILES): C[N+](C)(C)CCCCCn1c2ccc(Br)cc2c2cc(Br)ccc21.[Cl-] [Compound 1A, 5-(3,6-dibromo-9H-carbazol-9-yl)-N,N,N-trimethylpentan-1-aminium chloride]
- Fold increase in mean subject satisfaction score (Face-Q) (submental fat [1]; high dose): 2.5 fold
- Fold increase in mean subject satisfaction score (Face-Q) (submental fat [1]; low dose): 2.4 fold
- Subjects demonstrating improvement in submental fat (Physician Impression scale) (submental fat [2]): all but one of the 18
- Submental fat volume reduction (MRI) (submental fat [3]; high dose (Cohort 2, 5 mg/injection, up to 240 mg), P<0.05 vs the placebo group): -22.2% ± 14.9
- Submental fat volume reduction (MRI) (submental fat [3]; low dose (Cohort 1, 2.5 mg/injection, up to 120 mg), P=0.55 vs the placebo group, NS): -10.6% ± 14.5
- Severity of edema and induration compared to placebo ([4]; high dose group, particularly in the first 24 hours following injection): higher severity
- Safety and tolerability ([4]; low and high doses (averaged doses of 80 mg and 158.5 mg), no clinically significant changes in vital signs): safe and well tolerated
